Laboratory results: PubChem BioAssay AID2060902 (Molecular Pharmacology Branch, DTP, NCI, 2025)

Test system: 485368-065-R3-J5-PDC spheroids with HUVEC/MSC, viability
Assay: Anticancer human tumor 485368-065-R3-J5-PDC patient-derived pancreatic carcinoma cell line growth inhibition [RAS]
Details: for IC50: curve of first compound; for viability, T/C: stronger effect = lower value
Method in brief: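 Agents were tested in combination matrices in half-log decrements from a top concentration at or near clinical Cmax (10 microM if undetermined). Targets were multi-cell spheroids of tumour lines plus HUVEC and MSC stromal cells.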

[1] = second compound 0.000949 µM, first compound 0.0316 µM
[2] = second compound 0.000949 µM, first compound 0.1 µM
[3] = second compound 0.000949 µM, first compound 0.316 µM
[4] = second compound 0.000949 µM, first compound 1 µM
[5] = second compound 0.003 µM, first compound 0.0316 µM
[6] = second compound 0.003 µM, first compound 0.1 µM
[7] = second compound 0.003 µM, first compound 0.316 µM
[8] = second compound 0.003 µM, first compound 1 µM
[9] = second compound 0.00949 µM, first compound 0.0316 µM
[10] = second compound 0.00949 µM, first compound 0.1 µM
[11] = second compound 0.00949 µM, first compound 0.316 µM
[12] = second compound 0.00949 µM, first compound 1 µM
[13] = second compound 0.03 µM, first compound 0.0316 µM
[14] = second compound 0.03 µM, first compound 0.1 µM
[15] = second compound 0.03 µM, first compound 0.316 µM
[16] = second compound 0.03 µM, first compound 1 µM
[17] = second compound 0.0949 µM, first compound 0.0316 µM
[18] = second compound 0.0949 µM, first compound 0.1 µM
[19] = second compound 0.0949 µM, first compound 0.316 µM
[20] = second compound 0.0949 µM, first compound 1 µM
[21] = second compound 0.3 µM, first compound 0.0316 µM
[22] = second compound 0.3 µM, first compound 0.1 µM
[23] = second compound 0.3 µM, first compound 0.316 µM
[24] = second compound 0.3 µM, first compound 1 µM
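Also: spheroids exposed to agents for seven days before readout.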

`CC(=O)OC12COC1CC(O)C1(C)C(=O)C(O)C3=C(C)C(OC(=O)C(O)C(NC(=O)OC(C)(C)C)c4ccccc4)CC(O)(C(OC(=O)c4ccccc4)C21)C3(C)C` (stereo unspecified) + CCn1c(-c2cccnc2C(C)OC)c2c3cc(ccc31)N1CCOC(CC(NC(=O)C(C(C)C)N(C)C(=O)C3(F)CCN(C(=O)C#CC(C)(C)N(C)C)CC3)C(=O)N3CCCC(N3)C(=O)OCC(C)(C)C2)C1 gave an IC50 (second compound 0.000949 µM) of under 31.6 nM, an IC50 (second compound 0.003 µM) of under 31.6 nM and an IC50 (second compound 0.00949 µM) of under 31.6 nM. The IC50 (second compound 0.03 µM) was under 31.6 nM, the IC50 (second compound 0.0949 µM) was under 31.6 nM and the IC50 (second compound 0.3 µM) was under 31.6 nM. It also gave a viability, T/C [1] of 12.6%, a viability, T/C [2] of 14.3% and a viability, T/C [3] of 13.1%. The viability, T/C [4] was 13.9%, the viability, T/C (second compound 0.000949 µM, first compound 3.16 µM) was 21.4% and the viability, T/C (second compound 0.000949 µM, first compound 10 µM) was 25.7%. The viability, T/C [5] was 15.6%, the viability, T/C [6] was 13.6% and the viability, T/C [7] was 14%. For the same compound, the viability, T/C [8] was 16.9%, the viability, T/C (second compound 0.003 µM, first compound 3.16 µM) was 18.9% and the viability, T/C (second compound 0.003 µM, first compound 10 µM) was 25.5%. The viability, T/C [9] was 13.2%, the viability, T/C [10] was 15.1% and the viability, T/C [11] was 14%. The viability, T/C [12] was 22.6%, the viability, T/C (second compound 0.00949 µM, first compound 3.16 µM) was 21.1% and the viability, T/C (second compound 0.00949 µM, first compound 10 µM) was 27.4%. For the same compound, the viability, T/C [13] was 12.2%, the viability, T/C [14] was 18.4% and the viability, T/C [15] was 19.4%. The viability, T/C [16] was 16.6%, the viability, T/C (second compound 0.03 µM, first compound 3.16 µM) was 21.1% and the viability, T/C (second compound 0.03 µM, first compound 10 µM) was 26%. It also gave a viability, T/C [17] of 10.7%, a viability, T/C [18] of 16.4% and a viability, T/C [19] of 14.5%. It also gave a viability, T/C [20] of 12.2%, a viability, T/C (second compound 0.0949 µM, first compound 3.16 µM) of 21.3% and a viability, T/C (second compound 0.0949 µM, first compound 10 µM) of 27.5%. For the same compound, the viability, T/C [21] was 13.1%, the viability, T/C [22] was 16.8% and the viability, T/C [23] was 15.9%. For the same compound, the viability, T/C [24] was 17.6%, the viability, T/C (second compound 0.3 µM, first compound 3.16 µM) was 27.7% and the viability, T/C (second compound 0.3 µM, first compound 10 µM) was 27.5%.
`CCc1c2c(nc3ccc(O)cc13)-c1cc3c(c(=O)n1C2)COC(=O)[C@]3(O)CC` + CCn1c(-c2cccnc2C(C)OC)c2c3cc(ccc31)N1CCOC(CC(NC(=O)C(C(C)C)N(C)C(=O)C3(F)CCN(C(=O)C#CC(C)(C)N(C)C)CC3)C(=O)N3CCCC(N3)C(=O)OCC(C)(C)C2)C1 gave an IC50 (second compound 0.000949 µM) of 2.21 nM, an IC50 (second compound 0.003 µM) of 2.28 nM and an IC50 (second compound 0.00949 µM) of 2.14 nM. For the same compound, the IC50 (second compound 0.03 µM) was 2.27 nM, the IC50 (second compound 0.0949 µM) was 2.05 nM and the IC50 (second compound 0.3 µM) was 2.01 nM. The viability, T/C (second compound 0.000949 µM, first compound 0.000949 µM) was 84.3%, the viability, T/C (second compound 0.000949 µM, first compound 0.003 µM) was 36.9% and the viability, T/C (second compound 0.000949 µM, first compound 0.00949 µM) was 17%. It also gave a viability, T/C (second compound 0.000949 µM, first compound 0.03 µM) of 7.78%, a viability, T/C (second compound 0.000949 µM, first compound 0.0949 µM) of 3.95% and a viability, T/C (second compound 0.000949 µM, first compound 0.3 µM) of 3.3%. The viability, T/C (second compound 0.003 µM, first compound 0.000949 µM) was 84.1%, the viability, T/C (second compound 0.003 µM, first compound 0.003 µM) was 39.3% and the viability, T/C (second compound 0.003 µM, first compound 0.00949 µM) was 15.1%. The viability, T/C (second compound 0.003 µM, first compound 0.03 µM) was 6.58%, the viability, T/C (second compound 0.003 µM, first compound 0.0949 µM) was 5.33% and the viability, T/C (second compound 0.003 µM, first compound 0.3 µM) was 2.88%. The viability, T/C (second compound 0.00949 µM, first compound 0.000949 µM) was 76.9%, the viability, T/C (second compound 0.00949 µM, first compound 0.003 µM) was 39.2% and the viability, T/C (second compound 0.00949 µM, first compound 0.00949 µM) was 14.8%. For the same compound, the viability, T/C (second compound 0.00949 µM, first compound 0.03 µM) was 8.64%, the viability, T/C (second compound 0.00949 µM, first compound 0.0949 µM) was 4.69% and the viability, T/C (second compound 0.00949 µM, first compound 0.3 µM) was 3.02%. The viability, T/C (second compound 0.03 µM, first compound 0.000949 µM) was 88.8%, the viability, T/C (second compound 0.03 µM, first compound 0.003 µM) was 37.2% and the viability, T/C (second compound 0.03 µM, first compound 0.00949 µM) was 15.9%. It also gave a viability, T/C (second compound 0.03 µM, first compound 0.03 µM) of 8.19%, a viability, T/C (second compound 0.03 µM, first compound 0.0949 µM) of 3.98% and a viability, T/C (second compound 0.03 µM, first compound 0.3 µM) of 2.16%. For the same compound, the viability, T/C (second compound 0.0949 µM, first compound 0.000949 µM) was 88.1%, the viability, T/C (second compound 0.0949 µM, first compound 0.003 µM) was 29.7% and the viability, T/C (second compound 0.0949 µM, first compound 0.00949 µM) was 14.8%. For the same compound, the viability, T/C (second compound 0.0949 µM, first compound 0.03 µM) was 6.96%, the viability, T/C (second compound 0.0949 µM, first compound 0.0949 µM) was 4.68% and the viability, T/C (second compound 0.0949 µM, first compound 0.3 µM) was 2.71%. It also gave a viability, T/C (second compound 0.3 µM, first compound 0.000949 µM) of 82.5%, a viability, T/C (second compound 0.3 µM, first compound 0.003 µM) of 32.2% and a viability, T/C (second compound 0.3 µM, first compound 0.00949 µM) of 12.6%. It also gave a viability, T/C (second compound 0.3 µM, first compound 0.03 µM) of 9.2%, a viability, T/C (second compound 0.3 µM, first compound 0.0949 µM) of 5.3% and a viability, T/C (second compound 0.3 µM, first compound 0.3 µM) of 2.3%.
`Nc1ccn(C2OC(CO)C(O)C2(F)F)c(=O)n1` (stereo unspecified) + CCn1c(-c2cccnc2C(C)OC)c2c3cc(ccc31)N1CCOC(CC(NC(=O)C(C(C)C)N(C)C(=O)C3(F)CCN(C(=O)C#CC(C)(C)N(C)C)CC3)C(=O)N3CCCC(N3)C(=O)OCC(C)(C)C2)C1 showed an IC50 (second compound 0.000949 µM) of 7.04 nM, an IC50 (second compound 0.003 µM) of 6.7 nM and an IC50 (second compound 0.00949 µM) of 9.21 nM. For the same compound, the IC50 (second compound 0.03 µM) was 6.7 nM, the IC50 (second compound 0.0949 µM) was 6.84 nM and the IC50 (second compound 0.3 µM) was 6.66 nM. The viability, T/C (second compound 0.000949 µM, first compound 0.00316 µM) was 94.9%, the viability, T/C (second compound 0.000949 µM, first compound 0.01 µM) was 30.4% and the viability, T/C [1] was 11.6%. For the same compound, the viability, T/C [2] was 11%, the viability, T/C [3] was 14.4% and the viability, T/C [4] was 11.8%. The viability, T/C (second compound 0.003 µM, first compound 0.00316 µM) was 89.2%, the viability, T/C (second compound 0.003 µM, first compound 0.01 µM) was 29.2% and the viability, T/C [5] was 10.5%. The viability, T/C [6] was 9.86%, the viability, T/C [7] was 13.8% and the viability, T/C [8] was 13.4%. For the same compound, the viability, T/C (second compound 0.00949 µM, first compound 0.00316 µM) was 94.2%, the viability, T/C (second compound 0.00949 µM, first compound 0.01 µM) was 46.6% and the viability, T/C [9] was 11.3%. It also gave a viability, T/C [10] of 11.4%, a viability, T/C [11] of 11.3% and a viability, T/C [12] of 12.1%. The viability, T/C (second compound 0.03 µM, first compound 0.00316 µM) was 89.7%, the viability, T/C (second compound 0.03 µM, first compound 0.01 µM) was 28.8% and the viability, T/C [13] was 12.1%. It also gave a viability, T/C [14] of 12.9%, a viability, T/C [15] of 11.7% and a viability, T/C [16] of 10.4%. The viability, T/C (second compound 0.0949 µM, first compound 0.00316 µM) was 96.9%, the viability, T/C (second compound 0.0949 µM, first compound 0.01 µM) was 26.8% and the viability, T/C [17] was 11.9%. It also gave a viability, T/C [18] of 9.81%, a viability, T/C [19] of 12.7% and a viability, T/C [20] of 10.6%. The viability, T/C (second compound 0.3 µM, first compound 0.00316 µM) was 94%, the viability, T/C (second compound 0.3 µM, first compound 0.01 µM) was 25.7% and the viability, T/C [21] was 12.1%. For the same compound, the viability, T/C [22] was 11%, the viability, T/C [23] was 11.5% and the viability, T/C [24] was 9.33%.
